Data reported in patent US20090186361A1, “METHODS OF PREDICTING THE PHARMACEUTICAL TOXICITY OF TAXANES” (priority 2008, published 2009).

Test system: MAPT
Assay: Regression / mixed model of Toxicity Index on MAPT SNP genotype of recipient subjects
Assay type: in vivo, human
Details: for Fixed effect Estimate, COL6_2 (MAPT_H1): TT=1, CC=0
Excerpt: The GENOMELAB SNPSTREAM™ (Beckman) was utilized to accommodate up to 92,000 genotypes per day. This automated, multiplexed system can process up to 48 SNPs in each well of an arrayed 384-well plate. The SNPSTREAM™ operates at a consistent cost per genotype or per sample, regardless of run throughput, allowing users to cost-effectively zero in on targets with low-throughput studies as well as conduct high-throughput analyses.
The SNPSTREAM™ Genotyping System features a protocol with three steps. The technology is based on single-based primer extension technology. The system's high sensitivity delivers results using as little as 2 ng of genomic DNA. SNPWARE™ reagent kits were used. The kits included ready-to-use reagents, all performed in the original PCR plate according to the manufacturer's instructions, and incorporated herein by reference in its entirety.
Multiplexed reactions were spatially resolved on a SNPWARE™ Tag Array plate. Each of the 384 wells in a plate contained 16 or 52 unique oligonucleotides of a known sequence, or tag. Each tag on the plate was complementary to one of the tags of the 12 or 48 extension primers, plus four controls to ensure accuracy. After transfer to the Tag Array plate, each SNP was hybridized to its complementary tag. SNPs were then identified by their position in the well.
The process involved a multiplex PCR followed by an annealing reaction of the oligonucleotide to the specific PCR product. Next the oligonucleotide was extended by a single base which was fluorescently labeled with a terminating NTP and finally detected by two-colored fluorescence specific for the allele.
For each SNP, the -PCRU and -PCRL primers were first used to amplify a relevant DNA fragment surrounding the target SNP site. The components per reaction were: H2O, 3.0 μl; 10× PCR Buffer II, 0.5 μl; MgCl2 (25 mM), 1.0 μl; dNTPs (2.5 mM each), 0.18 μl; PCR Primer Pool (2.5 μM each), 0.1 μl; AMPLITAQ GOLD™ (5 U/μl), 0.125 μl for a total volume of 5.0 μl per reaction.
Primer -SNPU or SNPL was then used for single-base extension reaction. The thermocycler program was as follows: Step 1: 96° C. for 3 min; Step 2: 94° C. for 20 sec; Step 3: 40° C. for 11 sec; and Step 5: return to step 2 59 times, and finally to hold at 4° C.
A preliminary data analysis focused on the relationship between the Toxicity Index and the recipient subjects' demographic/genetic information. […] Univariate linear regression analysis was conducted first to find significant covariates in predicting the Toxicity Index in one of five cycles, then multivariable analysis was used to determine the best model in fitting the data. A mixed model for repeated measurement was implemented in modeling Toxicity Index in the first five cycles, and also in all cycles. Autoregressive covariance structure was used in the mixed model. SAS and Minitab were used in the analysis.
Covariates in the analysis included recoded binary demographic variables (sex, race, site, grade, stage) and recoded binary genetic variables.
Multivariable regression analysis was used to find the best model in predicting the Toxicity Index in each of the first five cycles.
A mixed model for repeated measurements was implemented to find the best model in fitting the longitudinal data. Autoregressive covariance structure was used in the mixed model. Toxicity Indexes in the first five cycles were included in the analysis.
To model Toxicity Indexes in all 21 cycles, a mixed model was used to find the best model. For the paclitaxel, Received dose and MAPT_H14 were significant fixed effects in predicting the longitudinal Toxicity Index in all cycles.

Structure (SMILES)	Fixed effect Estimate, COL6_2 (MAPT_H1) (mixed model, longitudinal Toxicity Index in all cycles, Pr > |t| 0.0029)	Fixed effect Estimate, COL6_2 (MAPT_H1) (mixed model, longitudinal Toxicity Index in first five cycles, Pr > |t| 0.0170)	Para. Est., TI4 vs MAPT_H2 (multivariable) (multivariable analysis best model, cycle 4, rs17652121, TT = 1, CC/TC = 0, P-value 0.029)	Para. Est., TI3 vs MAPT_H13 (multivariable) (multivariable regression with Site, cycle 3, rs3785883, GG = 1, AG = 0, P-value 0.003)	Para. Est., TI3 vs MAPT_H1_H21 (univariate linear regression, cycle 3, rs754512, AA = 1, TA/TT = 0, P-value 0.010)	Para. Est., TI3 vs MAPT_H1_H22 (univariate linear regression, cycle 3, rs767058, AA = 1, AG/GG = 0, P-value 0.006)	Para. Est., TI3 vs MAPT_H1_H23 (univariate linear regression, cycle 3, rs2055794, GG = 1, AA/AG = 0, P-value 0.010)	Para. Est., TI3 vs MAPT_H13 (univariate linear regression, cycle 3, rs3785883, GG = 1, AG = 0, P-value 0.013)	Para. Est., TI3 vs MAPT_H2 (univariate linear regression, cycle 3, rs17652121, TT = 1, CC/TC = 0, P-value 0.006)	Para. Est., TI4 vs MAPT_H1_H21 (univariate linear regression, cycle 4, rs754512, AA = 1, TA/TT = 0, P-value 0.023)	Para. Est., TI4 vs MAPT_H1_H22 (univariate linear regression, cycle 4, rs767058, AA = 1, AG/GG = 0, P-value 0.029)	Para. Est., TI4 vs MAPT_H1_H23 (univariate linear regression, cycle 4, rs2055794, GG = 1, AA/AG = 0, P-value 0.023)	Para. Est., TI4 vs MAPT_H2 (univariate linear regression, cycle 4, rs17652121, TT = 1, CC/TC = 0, P-value 0.029)	Fixed effect Estimate, COL18_3 (MAPT_H14) (mixed model for repeated measurements, longitudinal Toxicity Index in first five cycles, Pr > |t| 0.0118)	Fixed effect Estimate, COL18_3 (MAPT_H14) (mixed model, longitudinal Toxicity Index in all 21 cycles, Pr > |t| 0.0114)	Para. Est., TI3 vs MAPT_H14 (multivariable) (multivariable analysis best model, cycle 3, rs242557, TC = 1, CC/TT = 0, P-value 0.012)	Para. Est., TI1 vs MAPT_H14 (univariate linear regression, cycle 1, rs242557, TC = 1, CC/TT = 0, P-value 0.016)	Para. Est., TI3 vs MAPT_H14 (univariate linear regression, cycle 3, rs242557, TC = 1, CC/TT = 0, P-value 0.012)
CC(=O)O[C@@]12CO[C@@H]1C[C@H](O)[C@@]1(C)C(=O)[C@H](O)C3=C(C)[C@@H](OC(=O)[C@H](O)[C@@H](NC(=O)OC(C)(C)C)c4ccccc4)C[C@@](O)([C@@H](OC(=O)c4ccccc4)[C@H]21)C3(C)C (relative stereo) [Docetaxel, Benzenepropanoic acid, β-(((1,1-dimethylethoxy)carbonyl)amino)-α-hydroxy-, 12b-(acetyloxy)-12-(benzoyloxy)-2a,3,4,4a,5,6,9,10,11,12,12a,12b-dodecahydro-4,6,11-trihydroxy-4a,8,13,13-tetramethyl-5-oxo-7,11-methano-1H-cyclodeca(3,4)benz(1,2-b)oxet-9-yl ester trihydrate, (2aR-(2aα,4β,4aβ,6β,9(αR*,βS),11α,12α,12aα,12bα))-]	1.1286	1.1407	−0.900	1.408	−1.107	−1.166	−1.107	−1.245	−1.166	−0.953	−0.900	−0.953	−0.900	–	–	–	–	–
CC(=O)O[C@H]1C(=O)[C@@]2(C)[C@H]([C@H](OC(=O)c3ccccc3)[C@]3(O)C[C@H](OC(=O)[C@H](O)[C@@H](NC(=O)c4ccccc4)c4ccccc4)C(C)=C1C3(C)C)[C@]1(OC(C)=O)CO[C@@H]1C[C@@H]2O [Paclitaxel, (2aR,4S,4aS,6R,9S,11S,12S,12aR,12bS)-1,2a,3,4,4a,6,9,10,11,12,12a,12b-Dodecahydro-4,6,9,11,12,12b-hexahydroxy-4a,8,13,13-tetramethyl-7,11-methano-5H-cyclodeca(3,4)benz(1,2-b)oxet-5-one 6,12b-diacetate, 12-benzoate, 9-ester with (2R,3S)-N-benzoyl-3-phenylisoserine]	–	–	–	–	–	–	–	–	–	–	–	–	–	0.8918	0.6989	1.236	1.151	1.236
